Data as given in US9132129B2, “Antiviral compounds” (KATHOLIEKE UNIVERSITEIT LEUVEN, priority 2010, dated 2015).

What was measured:
Format in all cases: cell-based
[1] = MT4 cytotoxicity in mock-infected cells (MTT); details: human, mock-infected MT-4 cells
Experimental: A rapid and automated assay procedure was used for the in vitro evaluation of anti-HIV agents. An HTLV-1 transformed T4-cell line MT-4, which was previously shown to be highly susceptible to and permissive for HIV infection, served as the target cell line. Inhibition of the HIV-induced cytopathogenic effect was used as the end point. The viability of both HIV- and mock-infected cells was assessed spectrophotometrically via in situ reduction of 3-(4,5-dimethylthiazol-2-yl)-2,5-diphenyltetrazolium bromide (MTT). […] The percent protection achieved by the compound in HIV-infected cells was calculated by the following formula: […]
Examples of inhibition of cell proliferation by particular compounds of the invention can be found by looking at the respective CC50 values in the MT-4 cell line.
(§1) Cells: MT-4 cells (Miyoshi et al., 1982) were grown and maintained in RPMI 1640medium supplemented with 10% heat-inactivated fetal calf serum, 2 mM I-glutamine, 0.1% sodium bicarbonate, and 20æg of gentamicin per ml.

[2] = tested on: HIV-1(NL4.3); assay: MT4 based cytopathic effect assay (anti-HIV activity); details: Human immunodeficiency virus 1, MT4; HIV-infected MT-4 cells, MTT, 50% protection
Experimental: MT4 based Cytopathic Effect Assay
A rapid and automated assay procedure was used for the in vitro evaluation of anti-HIV agents. An HTLV-1 transformed T4-cell line MT-4, which was previously shown to be highly susceptible to and permissive for HIV infection, served as the target cell line. Inhibition of the HIV-induced cytopathogenic effect was used as the end point. The viability of both HIV- and mock-infected cells was assessed spectrophotometrically via in situ reduction of 3-(4,5-dimethylthiazol-2-yl)-2,5-diphenyltetrazolium bromide (MTT). […] The percent protection achieved by the compound in HIV-infected cells was calculated by the following formula:
[formula] whereby (ODT)HIV is the optical density measured with a given concentration of the test compound in HIV-infected cells; (ODC)HIV is the optical density measured for the control untreated HIV-infected cells; (ODC)MOCK is the optical density measured for the control untreated mock-infected cells; all optical density values were determined at 540 nm. […] The ratio of CC50 to EC50 was defined as the selectivity index (SI).
as §1
Viruses: The HIV-1(NL4.3) strain (Adachi et al., 1986) is a molecular clone obtained from the National Institutes of Health (Bethesda, Md.).

[3] = tested on: HIV-1 virus (NL4.3 strain); assay: MT-2 based antiviral assay (S8737E); details: Human immunodeficiency virus 1, 72 h; MT2 cells, 3 days, JC53BL β-Gal reporter readout
From the text: MT-2 Based Antiviral Assay (S8737E)
Much like the MT-4 based cytopathic effect assay, this assay is designed to determine the effects of small molecules on the replication of HIV-1 in the lymphobastoid cell line, MT2, and is able to detect the antiviral effect of compounds acting at any stage of the HIV-1 replication cycle. The assay, along with its associated cytotoxicity assay, was described in detail in 2005 in a paper by Cao et al (Antimicrobial Agents and Chemotherapy 2005; 49(9), p 3833-3841).
Briefly; MT2 cells are infected with the HIV-1 virus (NL4.3 strain) and transferred to assay plates containing serial dilutions of compounds to be tested. The assay plates are incubated for 3 days (MT2) to allow for several rounds of viral replication/infection to take place. At the end of this time, supernatant is transferred into new plates containing JC53BL cells.
JC53BL cells express CXCR4, CCR5 and CD4 receptors, and HIV-1-LTR-β-Gal. Under normal culture conditions undetectable levels of β-Galactosidase are expressed, but in the presence of HIV-1, the viral Tat protein is able to activate the HIV-1-LTR in the JC53BL cells resulting in the increased expression of the β-Gal enzyme. The expression can be measured using the ‘FluorAce β-Galactosidase reporter’ assay. The levels of β-Gal are directly proportional to the levels of Tat (up to a threshold) allowing virus quantification. Compounds that inhibit virus replication will give rise to a reduced signal and a dose-response curve for each compound can be generated. This is then used to determine the IC50 for each compound, a measure of the compound's potency, in a manner similar to the MT-4 based cytopathic effect assay.

[4] = in vitro; details: human
Experimental: The MT-2 based antiviral assay requires a separate cytotoxicity assessment of the compounds. This was performed using a 3 day MT-2 cytotoxicity assay as follows:
3 Day MT2 Cytotoxicity Assay (S8738E)
The assay is designed to test whether or not compounds have cytotoxic activity in MT2 cells by measuring the viability of these cells in the presence of compounds. The assay is carried out by adding MT2 assay plates containing serial dilutions of the compounds to be screened. After 3 days incubation, the viability of the cells remaining in the plates is assayed using the commercially available reagent CellTiter-Glo (Promega Ltd).

| EC50 [2] | SMILES | CC50 [1] | EC50 [3] | CC50 at 3 days [4] |
| --- | --- | --- | --- | --- |
| 1.45 µM | CCCC(C(=O)O)c1c(C)nc2cc3c(cc2c1-c1ccc(C)cc1)CCCC3 (centres unmarked) [Cpd001, 2-(-2-methyl-4-p-tolyl-6,7,8,9-tetrahydrobenzo[g]quinolin-3-yl)pentanoic acid] | 92 µM |  |  |
|  | CCCC(C(=O)O)c1c(C)nc2c3ccccc3nn2c1-c1ccc(C)cc1 (centres unmarked) [Cpd047, 2-(2-methyl-4-p-tolylpyrimido[1,2-b]indazol-3-yl)pentanoic acid] | 200 µM | > 20 µM |  |
|  | Cc1ccc(-c2c(C(OC(C)(C)C)C(=O)O)c(C)nc3cc4c(cc23)CCCC4)cc1 (centres unmarked) [Cpd002, tert-butoxy-(2-methyl-4-p-tolyl-6,7,8,9-tetrahydro-benzo[g]quinolin-3-yl)-acetic acid] |  | 0.46 µM | > 10 µM |
| 4.5 µM | CCCC(C(=O)O)c1c(C)nc2ccc3c(c2c1-c1ccc(C)cc1)CCC3 (centres unmarked) [Cpd023, 2-(3-methyl-1-p-tolyl-8,9-dihydro-7H-cyclopenta[f]quinolin-2-yl)pentanoic acid] | 114 µM |  |  |
| 1.45 µM | CCCC(C(=O)O)c1c(C)nc2ccc3c(c2c1-c1ccc(C)cc1)CCCC3 (centres unmarked) [Cpd003, 2-(3-methyl-1-4-p-tolyl-7,8,9,10-tetrahydrobenzo[f]quinolin-2-yl)pentanoic acid] | 92 µM |  |  |

| SMILES | EC50 [2] | CC50 [1] | EC50 [3] | CC50 at 3 days [4] |
| --- | --- | --- | --- | --- |
| CCCC(C(=O)O)c1c(C)nc2cc3c(cc2c1-c1ccc(C)cc1)CCC3 (centres unmarked) [Cpd012, 2-(2-methyl-4-p-tolyl-7,8-dihydro-6H-cyclopenta[g]quinolin-3-yl)pentanoic acid] | 0.53 µM | 82 µM | 1.68 µM | > 20 µM |
